Values of other authors, collected in PMC12211128, “Safety, tolerability, pharmacokinetic and pharmacodynamic effects of the muscarinic M1 positive allosteric modulator VU0467319 for Alzheimer’s disease: a single ascending-dose study in healthy participants” (Alzheimer's Research & Therapy, 2025).

System: animal models
Design: method as in PMID 39660766
Details: preclinical and IND-enabling studies; cited from earlier work

Question: Which “SLUDGE effects in animal models” value does the source give for `Cn1cc2c(-c3cc(F)c(CN4Cc5ncccc5C4=O)c(F)c3)cccc2n1` [VU319] here?
Answer: The value was “without producing SLUDGE effects”.

Question: What about the “cognition in animal models” value of the same compound?
Answer: Its value is “effective at improving cognition”.
